The values below come from patent publication US20170211012A1, “METHOD OF […] FROM MICROBES” (priority 2014, published 2017).

The test system of this test is Vibrio cholerae. Briefly: Colistin MIC against Vibrio cholerae strains. The test is classed as cell-based.

“And” between values parts separate entries of the source, which are not always exact repeats. Identical values can stand only once. Bounds are passed on as bounds.

Take colistin: the “Colistin MIC” value by setting is: (V. cholerae strain 32-14, O antigen not given) over 250 µg/mL; (V. cholerae strain 33-36, O antigen O-1) over 250 µg/mL; (V. cholerae strain 35-44, O antigen O-1) over 250 µg/mL; (V. cholerae strain 50-1, O antigen O-1) 4 µg/mL and 8 µg/mL; (V. cholerae strain 51-2, O antigen O-1) 4 µg/mL; (V. cholerae strain 52-4, O antigen O-1) 4 µg/mL. The “Colistin MIC” value runs as follows: (V. cholerae strain 57-11, O antigen O-139) 4 µg/mL; (V. cholerae strain 58-12, O antigen O-1) 125 µg/mL; (V. cholerae strain 79-35, O antigen O-1) over 250 µg/mL; (V. cholerae strain 114/98931, O antigen O-1) 125 µg/mL; (V. cholerae strain 461/99053, O antigen O-1) over 250 µg/mL; (V. cholerae strain 781, O antigen O-1) over 250 µg/mL. Moreover, the “Colistin MIC” value runs as follows: (V. cholerae strain 1837, O antigen O-139) over 250 µg/mL; (V. cholerae strain FMU-089933, O antigen O-139) 31.5 µg/mL; (V. cholerae strain M-702-3, O antigen O-1) over 250 µg/mL; (V. cholerae strain N16117, O antigen O-1) over 250 µg/mL; (V. cholerae strain N16861, O antigen O-1) over 250 µg/mL; (V. cholerae strain NG288/36, O antigen O-139) over 250 µg/mL. Further, the “Colistin MIC” value was over 250 µg/mL (V. cholerae strain NG368/36, O antigen O-139); 8 µg/mL (V. cholerae strain NRU-20455, O antigen O-139); 8 µg/mL and 4 µg/mL (V. cholerae strain NRU-20461, O antigen O-139); over 250 µg/mL (V. cholerae strain O-139 Argentina, O antigen O-139).
